Experimental data taken from patent US11484539B2, “Compounds and their uses for alleviating menopause-associated symptoms” (Estetra SPRL, priority 2018, dated 2022).
Marks after values point to notes of the source that are not given here.

How the values were obtained:
post-menopausal women [1] = assay: Genito-urinary symptoms (GSM), VVA subject self-assessment; format: in vivo
Procedure: Change from baseline to week 12 in the following GSM symptoms (VVA subject self-assessment) were recorded: • a) Vaginal dryness (sensation of dryness or burning in the vagina; none=0 mild=1, moderate=2 or severe=3):
• b) Vaginal and/or vulvar irritation/itching (sensation of abnormal irritation or sensitive condition in the vagina; none=0, mild=1, moderate=2 or severe=3):
• c) Dysuria (sensation of pain or difficulty in urinating; none=0, mild=1, moderate=2 or severe=3):
• d) Vaginal pain associated with sexual activity (sensation of pain with sexual intercourse none=0, mild=1, moderate=2 or severe=3):
• e) Vaginal bleeding associated with sexual activity (loss of blood with sexual intercourse; presence=1 vs. absence=0): […]

post-menopausal women [2] = assay: Adverse Events (AEs, TEAEs); format: in vivo
Excerpt: This is confirmed by the following statistical analysis. Using a Poisson regression model with a random effect for the patient and treatment group as a covariate to model the count of TEAEs in the different treatment groups, it can be shown that there is no statistical difference between the treatment groups (p value of 0.099). Second, a chi-square test was used to assess if the prevalence of patients reporting TEAEs in each treatment group was similar. No statistical difference was found between the treatment groups (p value of 0.575).

C[C@]12CC[C@@H]3c4ccc(O)cc4CC[C@H]3[C@@H]1[C@@H](O)[C@@H](O)[C@@H]2O [E4, 1,3,5 (10)-estratrien-3,15alpha,16alpha,17beta-tetrol]
Dysuria score (none=0, mild=1, moderate=2, severe=3), mean ± SD (post-menopausal women [1]; 2.5 mg, Baseline): 0.2 ± 0.56
Vaginal and/or vulvar irritation/itching score (none=0, mild=1, moderate=2, severe=3), mean ± SD (post-menopausal women [1]; 2.5 mg, Baseline): 0.7 ± 0.96
Vaginal bleeding associated with sexual activity, Absence (%) (post-menopausal women [1]; 2.5 mg, Baseline): 100%
Vaginal bleeding associated with sexual activity, Presence (%) (post-menopausal women [1]; 2.5 mg, Baseline): 0%
Vaginal dryness score (none=0, mild=1, moderate=2, severe=3), mean ± SD (post-menopausal women [1]; 2.5 mg, Baseline): 1 ± 0.90
Vaginal pain associated with sexual activity score (none=0, mild=1, moderate=2, severe=3), mean ± SD (post-menopausal women [1]; 2.5 mg, Baseline): 0.6 ± 0.77
Dysuria score (none=0, mild=1, moderate=2, severe=3), mean ± SD (post-menopausal women [1]; 2.5 mg, Week 12): 0 ± 0.19
Vaginal and/or vulvar irritation/itching score (none=0, mild=1, moderate=2, severe=3), mean ± SD (post-menopausal women [1]; 2.5 mg, Week 12): 0.3 ± 0.60
Vaginal bleeding associated with sexual activity, Absence (%) (post-menopausal women [1]; 2.5 mg, Week 12): 100%
Vaginal bleeding associated with sexual activity, Presence (%) (post-menopausal women [1]; 2.5 mg, Week 12): 0%
Vaginal dryness score (none=0, mild=1, moderate=2, severe=3), mean ± SD (post-menopausal women [1]; 2.5 mg, Week 12): 0.5 ± 0.77
Vaginal pain associated with sexual activity score (none=0, mild=1, moderate=2, severe=3), mean ± SD (post-menopausal women [1]; 2.5 mg, Week 12): 0.3 ± 0.73
Dysuria score (none=0, mild=1, moderate=2, severe=3), mean ± SD (post-menopausal women [1]; 5 mg, Baseline): 0.2 ± 0.56
Vaginal and/or vulvar irritation/itching score (none=0, mild=1, moderate=2, severe=3), mean ± SD (post-menopausal women [1]; 5 mg, Baseline): 0.6 ± 0.90
Vaginal bleeding associated with sexual activity, Presence (%) (post-menopausal women [1]; 5 mg, Baseline): 6.4%
Vaginal dryness score (none=0, mild=1, moderate=2, severe=3), mean ± SD (post-menopausal women [1]; 5 mg, Baseline): 1.3 ± 0.94
Vaginal pain associated with sexual activity score (none=0, mild=1, moderate=2, severe=3), mean ± SD (post-menopausal women [1]; 5 mg, Baseline): 1 ± 1.07
Vaginal bleeding associated with sexual activity, Absence (%) (post-menopausal women [1]; 5 mg, Baseline, some patients had no sexual activity): 91.5^# %
Dysuria score (none=0, mild=1, moderate=2, severe=3), mean ± SD (post-menopausal women [1]; 5 mg, Week 12): 0 ± 0.20
Vaginal and/or vulvar irritation/itching score (none=0, mild=1, moderate=2, severe=3), mean ± SD (post-menopausal women [1]; 5 mg, Week 12): 0.4 ± 0.65
Vaginal bleeding associated with sexual activity, Absence (%) (post-menopausal women [1]; 5 mg, Week 12): 100%
Vaginal bleeding associated with sexual activity, Presence (%) (post-menopausal women [1]; 5 mg, Week 12): 0%
Vaginal dryness score (none=0, mild=1, moderate=2, severe=3), mean ± SD (post-menopausal women [1]; 5 mg, Week 12): 0.7 ± 0.86
Vaginal pain associated with sexual activity score (none=0, mild=1, moderate=2, severe=3), mean ± SD (post-menopausal women [1]; 5 mg, Week 12): 0.5 ± 0.78
Dysuria score (none=0, mild=1, moderate=2, severe=3), mean ± SD (post-menopausal women [1]; 10 mg, Baseline): 0.2 ± 0.58
Vaginal and/or vulvar irritation/itching score (none=0, mild=1, moderate=2, severe=3), mean ± SD (post-menopausal women [1]; 10 mg, Baseline): 0.7 ± 0.87
Vaginal bleeding associated with sexual activity, Absence (%) (post-menopausal women [1]; 10 mg, Baseline): 100%
Vaginal bleeding associated with sexual activity, Presence (%) (post-menopausal women [1]; 10 mg, Baseline): 0%
Vaginal dryness score (none=0, mild=1, moderate=2, severe=3), mean ± SD (post-menopausal women [1]; 10 mg, Baseline): 1 ± 0.93
Vaginal pain associated with sexual activity score (none=0, mild=1, moderate=2, severe=3), mean ± SD (post-menopausal women [1]; 10 mg, Baseline): 0.6 ± 0.77
Dysuria score (none=0, mild=1, moderate=2, severe=3), mean ± SD (post-menopausal women [1]; 10 mg, Week 12): 0.1 ± 0.23
Vaginal and/or vulvar irritation/itching score (none=0, mild=1, moderate=2, severe=3), mean ± SD (post-menopausal women [1]; 10 mg, Week 12): 0.3 ± 0.64
Vaginal bleeding associated with sexual activity, Absence (%) (post-menopausal women [1]; 10 mg, Week 12): 100%
Vaginal bleeding associated with sexual activity, Presence (%) (post-menopausal women [1]; 10 mg, Week 12): 0%
Vaginal dryness score (none=0, mild=1, moderate=2, severe=3), mean ± SD (post-menopausal women [1]; 10 mg, Week 12): 0.5 ± 0.75
Vaginal pain associated with sexual activity score (none=0, mild=1, moderate=2, severe=3), mean ± SD (post-menopausal women [1]; 10 mg, Week 12): 0.2 ± 0.36
Dysuria score (none=0, mild=1, moderate=2, severe=3), mean ± SD (post-menopausal women [1]; 15 mg, Baseline): 0.3 ± 0.58
Vaginal and/or vulvar irritation/itching score (none=0, mild=1, moderate=2, severe=3), mean ± SD (post-menopausal women [1]; 15 mg, Baseline): 0.5 ± 0.85
Vaginal bleeding associated with sexual activity, Presence (%) (post-menopausal women [1]; 15 mg, Baseline): 0%
Vaginal dryness score (none=0, mild=1, moderate=2, severe=3), mean ± SD (post-menopausal women [1]; 15 mg, Baseline): 1.1 ± 1.04
Vaginal pain associated with sexual activity score (none=0, mild=1, moderate=2, severe=3), mean ± SD (post-menopausal women [1]; 15 mg, Baseline): 0.7 ± 0.90
Vaginal bleeding associated with sexual activity, Absence (%) (post-menopausal women [1]; 15 mg, Baseline, some patients had no sexual activity): 97.9^# %
Dysuria score (none=0, mild=1, moderate=2, severe=3), mean ± SD (post-menopausal women [1]; 15 mg, Week 12): 0.3 ± 0.61
Vaginal and/or vulvar irritation/itching score (none=0, mild=1, moderate=2, severe=3), mean ± SD (post-menopausal women [1]; 15 mg, Week 12): 0.4 ± 0.70
Vaginal bleeding associated with sexual activity, Absence (%) (post-menopausal women [1]; 15 mg, Week 12): 95.8%
Vaginal bleeding associated with sexual activity, Presence (%) (post-menopausal women [1]; 15 mg, Week 12): 4.2%
Vaginal dryness score (none=0, mild=1, moderate=2, severe=3), mean ± SD (post-menopausal women [1]; 15 mg, Week 12): 0.5 ± 0.68
Vaginal pain associated with sexual activity score (none=0, mild=1, moderate=2, severe=3), mean ± SD (post-menopausal women [1]; 15 mg, Week 12): 0.3 ± 0.54
Count of Treatment Emergent AEs (TEAEs) (post-menopausal women [2]; 2.5 mg): 61
Percentage of patients with TEAE leading to Study Discontinuation (post-menopausal women [2]; 2.5 mg): 1.9%
Percentage of patients with severe TEAE (post-menopausal women [2]; 2.5 mg): 7.7%
Count of Treatment Emergent AEs (TEAEs) (post-menopausal women [2]; 5 mg): 63
Percentage of patients with TEAE leading to Study Discontinuation (post-menopausal women [2]; 5 mg): 6.4%
Percentage of patients with severe TEAE (post-menopausal women [2]; 5 mg): 10.6%
Count of Treatment Emergent AEs (TEAEs) (post-menopausal women [2]; 10 mg): 95
Percentage of patients with TEAE leading to Study Discontinuation (post-menopausal women [2]; 10 mg): 5.6%
Percentage of patients with severe TEAE (post-menopausal women [2]; 10 mg): 7.4%
Average AEs per patient, in patients who had AEs (post-menopausal women [2]; 10 mg group): 3.2
Count of Treatment Emergent AEs (TEAEs) (post-menopausal women [2]; 15 mg): 82
Percentage of patients with TEAE leading to Study Discontinuation (post-menopausal women [2]; 15 mg): 4.1%
Percentage of patients with severe TEAE (post-menopausal women [2]; 15 mg): 6.1%
Average AEs per patient, in patients who had AEs (post-menopausal women [2]; 15 mg group): 2.6
TEAEs compared with the 10 mg group (post-menopausal women [2]; 15 mg group): less TEAEs than patients in the 10 mg group
